System: MSCs
Experiment: Whole genome expression analysis (Illumina microarray) of treated MSCs
Format: cell-based, Human
Experimental: MSCs were seeded in T25 flasks at 5000 cells/cm^2 and allowed to attach overnight in proliferation medium. […] After 48 hours, RNA was isolated as described above. From 500 ng of RNA, cRNA was synthesized using the Illumina TotalPrep RNA amplification Kit (Ambion), according to the manufacturer's protocol and the quality of RNA and cRNA was verified on a Bioanalyzer 2100 (Agilent). Microarrays were performed using Illumina HT-12 v4 expression Beadchips, according to the manufacturer's protocol. Briefly, 750 ng of cRNA was hybridized on the array overnight after which the array was washed and blocked. Then, by addition of streptavidin Cy-3 a fluorescent signal was developed. Arrays were scanned on an Illumina iScan reader and raw intensity values were background corrected in GenomeStudio (Illumina). Further data processing and statistical testing were performed with R and Bioconductor statistical software (www.bioconductor.org), using package lumi. Raw intensity values were transformed using variance stabilization and a quantile normalization was performed. A linear modelling approach with empirical Bayesian methods, as implemented in Limma package (54), was applied for differential expression analysis of the resulting probe-level expression values. A gene list, containing only those genes with an absolute 1.5-fold change between different treatments, was uploaded to Ingenuity Pathway Analysis (IPA) software and used for core analysis. Pathways or networks with a p-value of 0.05 were considered statistically significant.

CC(=O)N(O)CCCCCNC(=O)CCC(=O)N(O)CCCCCNC(=O)CCC(=O)N(O)CCCCCN [DFO, reference compound]
interleukin-8 (Il-8) gene expression (MSCs treated for two days, 150 µM DFO or 200 µM PHE): did not affect this gene at all | expression of HRE-containing genes (metabolism, cell growth and survival, endothelial genes) (MSCs treated for two days, 150 µM DFO or 200 µM PHE, relative to basic medium): increased expression | logFC(D142_ DFO - D142_BAS) NTN4 (ProbeID ILMN 2113490, DFO versus Bas): 2,23 | logFC(D142_ DFO - D142_BAS) HIST1H2BD (ProbeID ILMN_1651496, DFO versus Bas): 3,33 | logFC(D142_ DFO - D142_BAS) PFKFB4 (ProbeID ILMN_1653292, DFO versus Bas): 3,53 | logFC(D142_ DFO - D142_BAS) FZD2 (ProbeID ILMN_1653711, DFO versus Bas): -2,10 | logFC(D142_ DFO - D142_BAS) (ProbeID ILMN_1655796, DFO versus Bas): 2,46 | logFC(D142_ DFO - D142_BAS) PLAU (ProbeID ILMN_1656057, DFO versus Bas): -2,69 | logFC(D142_ DFO - D142_BAS) C1orf198 (ProbeID ILMN_1657683, DFO versus Bas): -2,30 | logFC(D142_ DFO - D142_BAS) KRTAP2-1 (ProbeID ILMN_1658448, DFO versus Bas): 2,71 | logFC(D142_ DFO - D142_BAS) SLC2A1 (ProbeID ILMN_1659027, DFO versus Bas): 3,46 | logFC(D142_ DFO - D142_BAS) HIST2H2AA3 (ProbeID ILMN_1659047, DFO versus Bas): 2,07 | logFC(D142_ DFO - D142_BAS) C7orf68 (ProbeID ILMN_1659990, DFO versus Bas): 3,04 | logFC(D142_ DFO - D142_BAS) LOC728285 (ProbeID ILMN_1660067, DFO versus Bas): 2,89 | logFC(D142_ DFO - D142_BAS) PFKFB3 (ProbeID ILMN_1660847, DFO versus Bas): 2,48 | logFC(D142_ DFO - D142_BAS) DDIT4 (ProbeID ILMN_1661599, DFO versus Bas): 4,37 | logFC(D142_ DFO - D142_BAS) CDC20 (ProbeID ILMN_1663390, DFO versus Bas): -3,40 | logFC(D142_ DFO - D142_BAS) MGC87042 (ProbeID ILMN_1663575, DFO versus Bas): -2,17 | logFC(D142_ DFO - D142_BAS) PPP1R14C (ProbeID ILMN_1664855, DFO versus Bas): 2,96 | logFC(D142_ DFO - D142_BAS) ERRFI1 (ProbeID ILMN_1665510, DFO versus Bas): 2,53 | logFC(D142_ DFO - D142_BAS) C1orf24 (ProbeID ILMN_1667966, DFO versus Bas): 2,70 | logFC(D142_ DFO - D142_BAS) PPM1D (ProbeID ILMN_1670875, DFO versus Bas): 2,06 | logFC(D142_ DFO - D142_BAS) ACTA2 (ProbeID ILMN_1671703, DFO versus Bas): -2,61 | logFC(D142_ DFO - D142_BAS) JAM2 (ProbeID ILMN_1672350, DFO versus Bas): 2,05 | logFC(D142_ DFO - D142_BAS) TFRC (ProbeID ILMN_1674243, DFO versus Bas): 2,31 | logFC(D142_ DFO - D142_BAS) MTHFD2 (ProbeID ILMN_1674706, DFO versus Bas): 2,79 | logFC(D142_ DFO - D142_BAS) MT3 (ProbeID ILMN_1675947, DFO versus Bas): 3,00 | logFC(D142_ DFO - D142_BAS) DDIT3 (ProbeID ILMN_1676984, DFO versus Bas): 3,92 | logFC(D142_ DFO - D142_BAS) CHN1 (ProbeID ILMN_1678493, DFO versus Bas): -2,71 | logFC(D142_ DFO - D142_BAS) SLC3A2 (ProbeID ILMN_1679041, DFO versus Bas): 2,26 | logFC(D142_ DFO - D142_BAS) CLK1 (ProbeID ILMN_1679727, DFO versus Bas): 2,03 | logFC(D142_ DFO - D142_BAS) MAFF (ProbeID ILMN_1680139, DFO versus Bas): 2,48 | logFC(D142_ DFO - D142_BAS) GPRC5A (ProbeID ILMN_1682599, DFO versus Bas): 2,35 | logFC(D142_ DFO - D142_BAS) IER3 (ProbeID ILMN_1682717, DFO versus Bas): 2,14 | logFC(D142_ DFO - D142_BAS) RRAD (ProbeID ILMN_1683179, DFO versus Bas): 2,83 | logFC(D142_ DFO - D142_BAS) GPT2 (ProbeID ILMN_1684158, DFO versus Bas): 2,16 | logFC(D142_ DFO - D142_BAS) INHBB (ProbeID ILMN_1685714, DFO versus Bas): 2,06 | logFC(D142_ DFO - D142_BAS) TOP2A (ProbeID ILMN_1686097, DFO versus Bas): -2,19 | logFC(D142_ DFO - D142_BAS) COLEC12 (ProbeID ILMN_1689088, DFO versus Bas): -3,20 | logFC(D142_ DFO - D142_BAS) CXCL12 (ProbeID ILMN_1689111, DFO versus Bas): -2,92 | logFC(D142_ DFO - D142_BAS) PDLIM7 (ProbeID ILMN_1690125, DFO versus Bas): -2,43 | logFC(D142_ DFO - D142_BAS) CRABP2 (ProbeID ILMN_1690170, DFO versus Bas): -2,06 | logFC(D142_ DFO - D142_BAS) STC2 (ProbeID ILMN_1691884, DFO versus Bas): 3,54 | logFC(D142_ DFO - D142_BAS) PSAT1 (ProbeID ILMN_1692938, DFO versus Bas): 3,93 | logFC(D142_ DFO - D142_BAS) P4HA1 (ProbeID ILMN_1693334, DFO versus Bas): 3,24 | logFC(D142_ DFO - D142_BAS) GADD45A (ProbeID ILMN_1694075, DFO versus Bas): 2,63 | logFC(D142_ DFO - D142_BAS) KIF20A (ProbeID ILMN_1695658, DFO versus Bas): -2,76 | logFC(D142_ DFO - D142_BAS) DDIT4L (ProbeID ILMN_1696537, DFO versus Bas): -2,14 | logFC(D142_ DFO - D142_BAS) TNFRSF10B (ProbeID ILMN_1699265, DFO versus Bas): 2,74

From patent publication EP2607478A1, “Phenanthroline treated MSC” (Universiteit Twente, priority 2011, dated 2013)
